The values below come from patent US8067442B2, “Heterocyclic antiviral compounds” (Roche Palo Alto LLC, priority 2008, dated 2011).

For the test, the target named is T1, HCV polymerase (NS5B570n-Con1) (Hepatitis C virus genotype 1b, UniProt Q9WMX2).
T1 construct: a 21 amino acid C-terminal deletion of full-length HCV polymerase; made in house; host or cells: E. coli BL21(DE3) pLysS, plasmid pET17b
The experiment in a line: biochemical. Also on record: species or system HCV Con1 strain. Here is the method:
The enzymatic activity of HCV polymerase (NS5B570n-Con1) was measured as the incorporation of radiolabeled nucleotide monophosphates into acid insoluble RNA products. Unincorporated radiolabeled substrate was removed by filtration and scintillant was added to the washed and dried filter plate containing radiolabeled RNA product. The amount of RNA product generated by NS5B570n-Con1 at the end of the reaction was directly proportional to the amount of light emitted by the scintillant.
The HCV polymerase used in the enzymatic activity assay is a 21 amino acid C-terminal deletion of full-length HCV polymerase derived from HCV Con1 strain, genotype 1b (GenBank accession number AJ242654) (NS5B570n-Con1). The NS5B570n-Con1 was sub-cloned downstream to the T7 promoter of the plasmid expression construct pET17b and transformed into E. coli strain BL21(DE3) pLysS for protein expression. A single colony was used to start an innoculum for a 10 L culture in LB media supplemented with 100 μg/mL ampicillin at 37° C. Protein expression was induced by the addition of 0.25 mM isopropyl-β-D-thiogalactopyranoside (IPTG) when the optical density of the culture at […] was 0.8. Induction of protein expression was carried out at 30° C. for 16 h after which the cells were harvested by centrifugation. NS5B570n-Con1 was purified to homogeneity using a three-column purification protocol including subsequent column chromatography on Ni-NTA, SP-Sepharose HP and Superdex 75 resins.
Enzymatic reactions in the presence of cIRES RNA template (see section [0300]) contained 20 nM cIRES RNA, 20 nM NS5B570n-Con1 enzyme, 0.5 μCi of tritiated UTP (Perkin Elmer catalog no. TRK-412; specific activity: 30 to 60 Ci/mmol), 1 μM each ATP, CTP, and GTP, 40 mM Tris-HCl pH 8.0, 40 mM NaCl, 4 mM DTT (dithiothreitol), 4 mM MgCl2, 5 μl of compound serial diluted in DMSO, and nuclease-free water to a final reaction volume of 50 μl. Enzymatic reactions in the presence of 20 nM cIRES template, 20 nM NS5B570n-Con1 enzyme, 1 μCi of tritiated UTP (Perkin Elmer catalog no. TRK-412; specific activity: 30 to 60 Ci/mmol), 40 mM Tris-HCl pH 8.0, 40 mM NaCl, 4 mM DTT (dithiothreitol), 4 mM MgCl2, 5 μl of compound serial diluted in DMSO, and nuclease-free water to a final reaction volume of 50 μl. Reaction mixtures were assembled in 96-well filter plates (cat #MADVNOB, Millipore Co.) and incubated for 2 h at 30° C. Reactions were stopped by addition of 10% final (v/v) trichloroacetic acid and incubated for 40 min at 4° C. Reactions were filtered, washed with 8 reaction volumes of 10% (v/v) trichloroacetic acetic acid, 4 reaction volumes of 70% (v/v) ethanol, air dried, and 25 μl of scintillant (Microscint 20, Perkin-Elmer) was added to each reaction well.
Two RNA templates can be used to assay compounds described herein. The cIRES RNA template is 377 nucleotide long and consisting of a partial complementary sequence (36 nucleotides) of the core protein, followed by 341 nucleotide of the complementary sequence of the internal ribosome entry site. The poly A RNA template (GE Amersham catalog number 27-4110) was a homopolymeric RNA pre-annealed to a oligo(rU)16 primer at a molar ratio of 3-to-1 (primer-template). The cIRES template was used in the assay unless otherwise noted.
The amount of light emitted from the scintillant was converted to counts per minute (CPM) on a Topcount® plate reader (Perkin-Elmer, Energy Range: Low, Efficiency Mode Normal, Count Time: 1 min, Background Subtract: none, Cross talk reduction: Off).
Data was analyzed in Excel® (Microsoft®) and ActivityBase® (Idbs®). The reaction in the absence of enzyme was used to determine the background signal, which was subtracted from the enzymatic reactions. […] All data was expressed as a percentage of the positive control. The compound concentration at which the enzyme-catalyzed rate of RNA synthesis was reduced by 50% (IC50) was calculated by fitting
For `CC(C)(C)c1cc(-c2ncc[nH]c2=O)cc2c(C(=O)N3CCOC(CNS(C)(=O)=O)C3)coc12` (centres unmarked) [Compound 100, N-{4-[7-tert-Butyl-5-(3-oxo-3,4-dihydro-pyrazin-2-yl)-benzofuran-3-carbonyl]-morpholin-2-ylmethyl}-methanesulfonamide], half-maximal inhibition (IC50) required 28 nM.

`CC(C)(C)c1cc(-c2ccc[nH]c2=O)cc2c(C(=O)N3CCOC(CNS(C)(=O)=O)C3)csc12` (centres unmarked) [Compound 112, N-{4-[7-tert-Butyl-5-(2-oxo-1,2-dihydro-pyridin-3-yl)-benzo[b]thiophene-3-carbonyl]-morpholin-2-ylmethyl}-methanesulfonamide]: the IC50 (usually the midpoint of a concentration-inhibition curve) was 4 nM.

With `CC(C)(C)c1cc(-c2ccc[nH]c2=O)cc2c(C(=O)N3CCCC(F)(CNS(C)(=O)=O)C3)coc12` (centres unmarked) [Compound 124, N-{1-[7-tert-Butyl-5-(2-oxo-1,2-dihydro-pyridin-3-yl)-benzofuran-3-carbonyl]-3-fluoro-piperidin-3-ylmethyl}-methanesulfonamide], the IC50 amounted to 6 nM.

For `CC(C)(C)c1cc(-c2ccc[nH]c2=O)cc2c(C(=O)N3CCCC(CCS(C)(=O)=O)C3)coc12` (centres unmarked) [Compound 132, 3-{7-tert-Butyl-3-[3-(2-methanesulfonyl-ethyl)-piperidine-1-carbonyl]-benzofuran-5-yl}-1H-pyridin-2-one], the IC50 came out at 29 nM. This IC50 is about 4.8-fold higher than that of the compound before.

For the compound `CCOC(=O)c1coc2c(C(C)(C)C)cc(-c3ccc[nH]c3=O)cc12` [Compound I-3, 7-tert-butyl-5-(2-oxo-1,2-dihydro-pyridin-3-yl)-benzofuran-3-carboxylic acid ethyl ester], it took 258 nM to reach half-maximal inhibition (IC50).

The compound `CC(C)(C)c1cc(-c2ccc[nH]c2=O)cc2c(C(=O)O)coc12` [Compound I-4, 7-tert-butyl-5-(2-oxo-1,2-dihydro-pyridin-3-yl)-benzofuran-3-carboxylic acid] registered an IC50 of 381 nM.

In turn, `CC(C)(C)c1cc(-c2ccc[nH]c2=O)cc2c(C(=O)N3CCOCC3)coc12` [Compound I-7] had an IC50 of 142 nM. Compared with the last compound, the IC50 is about 2.7-fold lower.

Consider `CC(C)(C)c1cc(-c2ccc[nH]c2=O)cc2c(CO)coc12` [Compound I-8], for which the IC50 came to 515 nM.

The compound `CC(C)NC(=O)c1coc2c(C(C)(C)C)cc(-c3ccc[nH]c3=O)cc12` [Compound I-9] gave an IC50 of 1540 nM.

The compound `CC(C)CNC(=O)c1coc2c(C(C)(C)C)cc(-c3ccc[nH]c3=O)cc12` [Compound I-10] came in with an IC50 of 404 nM.

Turning to `CC(C)CN(C)C(=O)c1coc2c(C(C)(C)C)cc(-c3ccc[nH]c3=O)cc12` [Compound I-11], half-maximal inhibition (IC50) was put at 475 nM.

The compound `CC(C)(C)c1cc(-c2ccc[nH]c2=O)cc2c(C(=O)N3CCC(O)CC3)coc12` [Compound I-12] returned an IC50 of 63 nM.

In turn, `CC(C)(C)c1cc(-c2ccc[nH]c2=O)cc2c(C(=O)N3CCCCC3)coc12` [Compound I-13] gave an IC50 of 48 nM.

For `CC(C)(C)c1cc(-c2ccc[nH]c2=O)cc2c(C(=O)N3CCCC(CO)C3)coc12` (centres unmarked) [Compound I-14], it took 66 nM to reach half-maximal inhibition (IC50). This IC50 and that of the compound before are within 1.5-fold of each other.

`CC(C)(C)c1cc(-c2ccc[nH]c2=O)cc2c(C(=O)N3CCOC(CO)C3)coc12` (centres unmarked) [Compound I-15] had an IC50 of 325 nM. This IC50 lies about 4.9-fold higher than the previous one.

With `CC(C)(C)c1cc(-c2ccc[nH]c2=O)cc2c(C(=O)N3CCC[C@H]3CO)coc12` [Compound I-17], half-maximal inhibition (IC50) was put at 112 nM.

Take `CC(C)(C)c1cc(-c2ccc[nH]c2=O)cc2c(C(=O)NC3(CO)CCCC3)coc12` [Compound I-18]: the midpoint of inhibition, the IC50, lay at 4800 nM.

As for `COCCN(CCOC)C(=O)c1coc2c(C(C)(C)C)cc(-c3ccc[nH]c3=O)cc12` [Compound I-19], the half-maximal inhibitory concentration (IC50) turned out to be 4350 nM.

Regarding `CNC(=O)c1coc2c(C(C)(C)C)cc(-c3ccc[nH]c3=O)cc12` [Compound I-22], the IC50 turned out to be 770 nM.

`CC(C)(C)c1cc(-c2ccc[nH]c2=O)cc2c(C(=O)Nc3ccccc3)coc12` [Compound I-23] gave an IC50 of 425 nM.

The compound `CCN(CCOC)C(=O)c1coc2c(C(C)(C)C)cc(-c3ccc[nH]c3=O)cc12` [Compound I-25] came in with an IC50 of 1330 nM. This IC50 is about 3.1-fold higher than that of the compound before.

Turning to `COC(=O)C1COc2c1cc(-c1ccc[nH]c1=O)cc2C(C)(C)C` (centres unmarked) [Compound I-26, 7-tert-Butyl-5-(2-oxo-1,2-dihydro-pyridin-3-yl)-2,3-dihydro-benzo furan-3-carboxylic acid methyl ester], the IC50 stood at 37 nM.

`CC(C)(C)c1cc(-c2ccc[nH]c2=O)cc2c(C(=O)N3CCCC(O)C3)coc12` (centres unmarked) [Compound I-27] came in with an IC50 of 186 nM. This IC50 is about 5-fold higher than that of the compound before.

Compound `CC(C)(C)c1cc(-c2ccc[nH]c2=O)cc2c(C(=O)N3CCNCC3)coc12` [Compound I-28] registered an IC50 of 1940 nM.

`COc1cccc(C(=O)c2coc3c(C(C)(C)C)cc(-c4ccc[nH]c4=O)cc23)c1` [Compound I-30, 3-[7-tert-Butyl-3-(3-methoxy-benzoyl)-benzofuran-5-yl]-1H-pyridin-2-one] had an IC50 of 329 nM.

Compound `Cc1ccsc1C(=O)c1coc2c(C(C)(C)C)cc(-c3ccc[nH]c3=O)cc12` [Compound I-31] had an IC50 of 69 nM.

As to `CC(C)(C)c1cc(-c2ccc[nH]c2=O)cc2c(-c3cccc(C#N)c3)coc12` [Compound I-32], inhibition was half-maximal at 38 nM (IC50).

`CC(C)(C)c1cc(-c2ccc[nH]c2=O)cc2c(-c3cccc(O)c3)coc12` [Compound I-34] displayed an IC50 of 24 nM.

Compound `CC(C)(C)c1cc(-c2ccc[nH]c2=O)cc2c(-c3ccc(C#N)cc3)coc12` [Compound I-35] returned a 50% inhibitory concentration (IC50) of 72 nM.

`CC(C)(C)OC(=O)N[C@@H]1CCCN(C(=O)c2coc3c(C(C)(C)C)cc(-c4ccc[nH]c4=O)cc23)C1` [Compound I-38] returned an IC50 of 132 nM.

`CC(C)(C)OC(=O)NC1CCN(C(=O)c2coc3c(C(C)(C)C)cc(-c4ccc[nH]c4=O)cc23)CC1` [Compound I-39] had an IC50 of 4370 nM. This IC50 is about 33-fold higher than that of the compound before.

On to `CC(C)(C)OC(=O)N[C@H]1CCCN(C(=O)c2coc3c(C(C)(C)C)cc(-c4ccc[nH]c4=O)cc23)C1` [Compound I-40], for which the IC50 was 1410 nM. Against the preceding compound, the IC50 is about 3.1-fold lower.

For the compound `CC(C)(C)OC(=O)NCC1CCN(C(=O)c2coc3c(C(C)(C)C)cc(-c4ccc[nH]c4=O)cc23)C1` (centres unmarked) [Compound I-45], half-maximal inhibition (IC50) was put at 76 nM.

Consider `CC(C)(C)c1cc(-c2ccc[nH]c2=O)cc2c(C(=O)N3CCC[C@H](NS(C)(=O)=O)C3)coc12` [Compound I-47], for which the IC50 turned out to be 172 nM.

For `CC(C)(C)c1cc(-c2ccc[nH]c2=O)cc2c(C(=O)N3CCCC3)coc12` [Compound I-51], the IC50 turned out to be 12 nM.

In turn, `CC(=O)N1CCN(C(=O)c2coc3c(C(C)(C)C)cc(-c4ccc[nH]c4=O)cc23)CC1` [Compound I-52] gave an IC50 of 1250 nM.

`CN(C)[C@H]1CCN(C(=O)c2coc3c(C(C)(C)C)cc(-c4ccc[nH]c4=O)cc23)C1` [Compound I-53]: the IC50 came out at 454 nM.

`CC(C)(C)c1cc(-c2ccc[nH]c2=O)cc2c(C(=O)N3CCC(NC(=O)C(F)(F)F)CC3)coc12` [Compound I-55]: the IC50 was determined as 2280 nM.

`CC(C)(C)c1cc(-c2ccc[nH]c2=O)cc2c(C(=O)N3CCC(C(N)=O)CC3)coc12` [Compound I-58]: half-maximal inhibition (IC50) required 282 nM.

Regarding `CC(C)(C)c1cc(-c2ccc[nH]c2=O)cc2c(C(=O)N3CCC(NC(=O)C(F)(F)F)C3)coc12` (centres unmarked) [Compound I-60], 51 nM corresponded to half-maximal inhibition (IC50).

Compound `CC(C)(C)c1cc(-c2ccc[nH]c2=O)cc2c(C(=O)N3CCCC(C(N)=O)C3)coc12` (centres unmarked) [Compound I-61] yielded an IC50 of 66 nM. This IC50 and that of the compound before are within 1.5-fold of each other.
